Legend:
Format in all cases: cell-based
[1] = tested on: human follicle dermal papilla cells; assay: mRNA expression (RT-PCR) in human follicle dermal papilla cells; settings: 0.1 μM, 24 hours
Description: (§1) Human follicle dermal papilla cells were purchased from Promo Cell (Heidelberg, Germany). The cells were cultured in a ready-to-use HFDPC medium composed of a basal medium, FCS (fetal calf serum) and a supplement kit Promo Cell (Heidelberg, Germany) containing basal FGF and insulin. For subculture, a kit containing HBSS (HEPES buffered saline), trypsin/EDTA solution and neutralizing solution (Promo Cell, Heidelberg, Germany) was used. Human follicle dermal papilla cells at passages 4 to 6 were used in the test and cultured in a T-25 flask containing 5 ml of medium under the conditions of 37° C. and 5% CO2.
In order to examine the mechanisms of action of the purified extract of Ecklonia cava and the dioxinodehydroeckol compound on the proliferation of human follicle dermal papilla cells, reverse transcription polymerase chain reaction (RT-PCR) was performed according to a standard protocol. Specifically, the cells were seeded into a 6-well plate together with a serum-free medium and cultured for 24 hours (1.0×10^6 cells/well). Then, the medium was replaced with a fresh medium, and the cells were treated with various concentrations of a test material for 24 hours and then lysed with TRIzol® (Invitrogen).

[2] = tested on: human follicle dermal papilla cells; assay: Cell viability of human follicle dermal papilla cells (MTT assay)
Description: The cell viability of human follicle dermal papilla cells were measured using a 3-(4,5-dimethylthiazole-2-yl)-2,5-diphenyl-tetrazolium bromide [MTT] assay.
Specifically, 100 μL of cells were dispensed into each well of 96-well plates at a concentration of 1×10^6 cells/ml and cultured for 24 hours. A sample was prepared in a medium free of FBS and 1% penicillin/streptomycin at various concentrations, and the cells was treated with the sample and incubated for 24 hours. The cells were treated with an MTT solution (5 mg/mL) for 3 hours, and then the MTT was reduced and the medium was carefully removed such that the produced formazan was not removed. Then, 100 μL of dimethyl sulfoxide (DMSO) was dispensed into each well, and after 30 minutes, the absorbance at 570 nm was measured.

[3] = tested on: hair-related cells; assay: Test of isolated active substances using hair-related cells in an in vitro system
From the text: The 7′-fluoroeckol compound is disclosed in Korean Patent Application No. 10-2011-0000141. The present invention aims to find a dioxinodehydroeckol compound and an Ecklonia cava extract using an extraction method capable of improving hair growth effects.

[4] = tested on: human follicle dermal papilla cells; assay: Protein expression test (Western blotting) in human follicle dermal papilla cells; settings: 0.1 μM, 24 hours
Description: as §1
In order to examine the mechanisms of action of the purified extract of Ecklonia cava and the dioxinodehydroeckol compound on the proliferation of human follicle dermal papilla cells, Western blotting was carried out according to standard protocol.
Specifically, the cells were seeded into a 6-well medium together with a serum-free medium and cultured for 24 hours (1.0×10^6 cells/well). Then, the medium was replaced with a fresh medium, and the cells were treated with various concentrations of a sample for 1-24 hours. […] The cells were cultured with horseradish-peroxidase-conjugated secondary antibody at room temperature, and then immune-reactive protein was detected using an enhanced chemiluminescence (ECL) analysis kit according to the manufacturer's instruction. […]

[5] = tested on: human hair tissue; assay: Evaluation of hair growth by culture of human hair tissue; settings: 0.1 μM
Description: Human hair tissue provided from Immunobiology Laboratory, Kyungpook National University, was used in the test and cultured in a CO2 incubator at 37° C. with Williams E media (Sigma, USA) containing 2 mM L-glutamin, 100 U/ml streptomycin and 10 ng/ml hydrocortisone. The tissue was cultured with various concentrations of the test material for 6 days, and the length of the hair tissue was measured at days 3 and 6.

Compound | expression level of ALP mRNA, increase [1] [times] | expression level of VCAN mRNA, increase [1] [times] | expression level of VEGF mRNA, increase [1] [times] | viability at 0.1 µM ([2]; Homo sapiens, 0.1 μM, read-out: highest cell viability) [%] | viability of the human follicle dermal papilla cells compared to untreated control ([2]; concentration range of 0.001-5 μM, FIG. 1c) | influence on hair-related cells [3] | expression level of BMP2/4 protein, increase compared to untreated control [4] [times] | expression level of β-catenin protein, increase compared to untreated control [4] [times] | increased hair length ([5]; day 3) [mm] | increased hair length ([5]; day 6) [mm] | cell viability ([2]; 1 μM, listed as minoidil) [%] | viability at 1 µM ([2]; Homo sapiens, 1 μM) [%]
Oc1cc(O)c2oc3cc(O)c4oc5cc(O)cc(O)c5oc4c3oc2c1 [dioxinodehydroeckol] | 1.5 | 1.8 | 1.3 | 142 | significantly increased | specifically influence hair-related cells | 1.8 | 2.0 | 0.84 | 1.43 |  | 
7′-fluoroeckol [7′-fluoroeckol compound] |  |  |  |  |  | specifically influence hair-related cells |  |  |  |  |  | 
Nc1cc(N2CCCCC2)nc(N)[n+]1[O-] [Minoxidil, reference compound] |  |  |  |  |  |  |  |  |  |  | 121 | 119

From patent US20130089568A1, “HAIR GROWTH STIMULATOR BASED ON ECKLONIA CAVA EXTRACT, PREPARATION METHOD THEREOF, AND COSMETIC COMPOSITION CONTAINING THE SAME” (priority 2011, published 2013)
